The experiment concerns the target T1, trypsin-activated recombinant human renin (Homo sapiens, UniProt P00797).
T1 sequence (P00797 67-406): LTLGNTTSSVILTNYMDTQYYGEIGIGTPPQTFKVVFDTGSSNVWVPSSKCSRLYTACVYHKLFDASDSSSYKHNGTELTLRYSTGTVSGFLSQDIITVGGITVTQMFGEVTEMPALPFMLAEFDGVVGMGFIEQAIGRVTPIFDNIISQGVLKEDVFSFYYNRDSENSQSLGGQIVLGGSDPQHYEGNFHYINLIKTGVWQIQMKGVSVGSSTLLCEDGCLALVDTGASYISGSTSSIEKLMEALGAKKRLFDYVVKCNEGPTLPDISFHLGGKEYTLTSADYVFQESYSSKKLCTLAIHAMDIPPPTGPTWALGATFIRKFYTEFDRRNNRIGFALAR
Nature of the experiment: Renin fluorescence assay (internally quenched peptide substrate). It counts as biochemical. The conditions noted are these: compounds I*. The method, then: The sequence of this peptide corresponds to the sequence of human angiotensinogen. The following test protocol can be used. All reactions are carried out in a flat bottom white opaque microtiter plate. A 4 μL aliquot of 400 μM renin substrate (DABCYL-γ-[…]) in 192 μL assay buffer (50 mM BES, 150 mM NaCl, 0.25 mg/mL bovine serum albumin, pH7.0) is added to 4 μL of test compound in DMSO at various concentrations ranging from 10 μM to 1 nM final concentrations. Next, 100 μL of trypsin-activated recombinant human renin (final enzyme concentration of 0.2-2 nM) in assay buffer is added, and the solution is mixed by pipetting. The increase in fluorescence at 495 nm (excitation at 340 nm) is measured for 60-360 minutes at rt using a Perkin-Elmer Fusion microplate reader. The slope of a linear portion of the plot of fluorescence-increase as a function of time is then determined, and the rate is used for calculating percent inhibition in relation to uninhibited control. […] (Wang G. T. et al. Anal. Biochem. 1993, 210, 351; Nakamura, N. et al. J. Biochem. (Tokyo) 1991, 109, 741; Murakami, K. et al. Anal Biochem. 1981, 110, 232).
In the case of `CNC[C@H](CC1CCOCC1)NC(=O)N1CCC[C@@H]([C@H](OCCNC(=O)OC)c2cccs2)C1` [I*-16a, methyl 2-((S)-((R)-1-((S)-1-(methylamino)-3-(tetrahydro-2H-pyran-4-yl)propan-2-ylcarbamoyl)piperidin-3-yl)(thiophen-2-yl)methoxy)ethylcarbamate], the half-inhibitory concentration (IC50) was above 50 nM.
Turning to `CNC[C@H](CC1CCCCC1)NC(=O)N1CCC[C@@H]([C@@H](OCCNc2nccs2)c2cccc(Cl)c2)C1` [I*-128a, (R)-3-((R)-(3-chlorophenyl)(2-(thiazol-2-ylamino)ethoxy)methyl)-N-((S)-1-cyclohexyl-3-(methylamino)propan-2-yl)piperidine-1-carboxamide], the IC50 is above 50 nM.
Consider `CNC[C@H](CC1CCCCC1)NC(=O)N1CCC[C@@H]([C@@](C)(OCC(=O)NC)c2cccc(Cl)c2)C1` [I*-25a, (R)-3-((R)-1-(3-chlorophenyl)-1-(2-(methylamino)-2-oxoethoxy)ethyl)-N—((S)-1-cyclohexyl-3-(methylamino)propan-2-yl)piperidine-1-carboxamide], for which the IC50 was above 50 nM.
For `CNC[C@@H](NC(=O)N1CCC[C@@H]([C@@H](OCCNC(=O)OC)c2cccc(F)c2)C1)[C@@H](O)C1CCCC1` [I*-27a, methyl 2-((R)-((R)-1-((1S,2R)-1-cyclopentyl-1-hydroxy-3-(methylamino)propan-2-ylcarbamoyl)piperidin-3-yl)(3-fluorophenyl)methoxy)ethylcarbamate] the value was below 10 nM; for `COC(=O)NCCO[C@@H](c1cc(F)cc(F)c1)[C@@H]1CCCN(C(=O)NC[C@@H](N)C[C@H]2CCCCOC2)C1` [I*-73a, methyl 2-((R)-((R)-1-((S)-2-amino-3-((R)-oxepan-3-yl)propylcarbamoyl)piperidin-3-yl)(3,5-difluorophenyl)methoxy)ethylcarbamate], below 10 nM.
For `CNC[C@H](CC1CCCOC1)NC(=O)N1CCC[C@@H]([C@@](O)(CCCNC(=O)OC)c2cccc(Cl)c2F)C1` (stereo partly drawn) [I*-139a, methyl (S)-4-(3-chloro-2-fluorophenyl)-4-hydroxy-4-((3R)-1-((S)-1-(methylamino)-3-(tetrahydro-2H-pyran-3-yl)propan-2-ylcarbamoyl)piperidin-3-yl)butylcarbamate] the value was below 10 nM.
`CNC[C@H](CC1CCCC1)NC(=O)N1CCC[C@@H]([C@@H](OCCNC(=O)OC)c2cccc(F)c2)C1` [I*-5a, methyl 2-((R)—((R)-1-((S)-1-cyclopentyl-3-(methylamino)propan-2-ylcarbamoyl)piperidin-3-yl)(3-fluorophenyl)methoxy)ethylcarbamate]: the IC50 is below 10 nM.
Next, `CNC[C@H](CC1CCCCC1)NC(=O)N1CCC[C@@H](C(OCCNC(=O)OC)c2cc(Cl)ccc2F)C1` (stereo partly drawn) [I*-116a, methyl 2-((5-chloro-2-fluorophenyl)((R)-1-((S)-1-cyclohexyl-3-(methylamino)propan-2-ylcarbamoyl)piperidin-3-yl)methoxy)ethylcarbamate]: below 10 nM.
On to `CNC[C@@H](NC(=O)N1CCC[C@@H]([C@@H](OCCNC(=O)OC)c2cccc(F)c2)C1)[C@@H](O)C1CCCCC1` [I*-48a, methyl 2-((R)-((R)-1-((1S,2R)-1-cyclohexyl-1-hydroxy-3-(methylamino)propan-2-ylcarbamoyl)piperidin-3-yl)(3-fluorophenyl)methoxy)ethylcarbamate], for which the IC50 was below 10 nM.
For `CNC[C@H](CC1CCOCC1)NC(=O)N1CCC[C@@H]([C@@H](OCCNC(=O)OC)c2ccccc2)C1` [I*-3a, methyl 2-((R)—((R)-1-((S)-4-(methylamino)-3-(tetrahydro-2H-pyran-4-yl)propan-2-ylcarbamoyl)piperidin-3-yl)(phenyl)methoxy)ethylcarbamate] the value was below 50 nM.
With `CNC[C@H](CC1CCC(=O)CC1)NC(=O)N1CCC[C@@H]([C@@H](OCCNC(=O)OC)c2cccc(Cl)c2)C1` [I*-80a, methyl 2-((R)-(3-chlorophenyl)((R)-1-((S)-1-(methylamino)-3-(4-oxocyclohexyl)propan-2-ylcarbamoyl)piperidin-3-yl)methoxy)ethylcarbamate], the IC50 is below 10 nM.
Next, `CNC[C@H](C[C@H]1CCCCOC1)NC(=O)N1CCC[C@@H]([C@@H](OCCNC(=O)OC)c2ccccc2F)C1` [I*-57a, methyl 2-((1R)-(2-fluorophenyl)((3R)-1-(1-(methylamino)-3-((R)-oxepan-3-yl)propan-2-ylcarbamoyl)piperidin-3-yl)methoxy)ethylcarbamate]: below 10 nM.
Next, `CNC[C@H](C[C@H]1CCC(C)(C)OC1)NC(=O)N1CCC[C@@H]([C@@H](OCCNC(=O)OC)c2cc(F)cc(F)c2)C1` [I*-155a, methyl 2-((R)-(3,5-difluorophenyl)((R)-1-((S)-1-((R)-6,6-dimethyl-tetrahydro-2H-pyran-3-yl)-3-(methylamino)propan-2-ylcarbamoyl)piperidin-3-yl)methoxy)ethylcarbamate]: below 10 nM; `CNCC(CC12CCC(CC1)CC2)NC(=O)N1CCC[C@@H]([C@@H](OCCNC(=O)OC)c2cccc(Cl)c2)C1` (stereo partly drawn) [I*-129a, methyl 2-((R)-((3R)-1-(1-(bicyclo[2.2.2]octan-1-yl)-3-(methylamino)propan-2-ylcarbamoyl)piperidin-3-yl)(3-chlorophenyl)methoxy)ethylcarbamate]: above 50 nM; `CNC[C@H](C[C@H]1CCC(C)(C)OC1)NC(=O)N1CCC[C@@H]([C@@H](OCCNC(=O)OC)c2cccc(Cl)c2)C1` [I*-157a, methyl 2-((R)-(3-chlorophenyl)((R)-1-((S)-1-((R)-6,6-dimethyl-tetrahydro-2H-pyran-3-yl)-3-(methylamino)propan-2-ylcarbamoyl)piperidin-3-yl)methoxy)ethylcarbamate]: below 10 nM.
For `CCNC(=O)CO[C@@H](c1cccc(Cl)c1)[C@@H]1CCCN(C(=O)N[C@H](CNC)C[C@H]2CCCOC2)C1` [I*-30a, (R)-3-((R)-(3-chlorophenyl)(2-(ethylamino)-2-oxoethoxy)methyl)-N—((S)-1-(methylamino)-3-((R)-tetrahydro-2H-pyran-3-yl)propan-2-yl)piperidine-1-carboxamide] the value was below 20 nM; for `CNC[C@H](CC1CCOCC1)NC(=O)N1CCC[C@@H]([C@@H](OCCNC(=O)OC)c2cccc(C(F)(F)F)c2)C1` [I*-144a, methyl 2-((R)-((R)-1-((S)-1-(methylamino)-3-(tetrahydro-2H-pyran-4-yl)propan-2-ylcarbamoyl)piperidin-3-yl)(3-(trifluoromethyl)phenyl)methoxy)ethylcarbamate], above 50 nM.
Take `CNC[C@H](CC1CCCC1)NC(=O)N1CCC[C@@H]([C@@H](OCCNC(=O)OC)c2cc(Cl)ccc2C)C1` [I*-60a, methyl 2-((R)-(5-chloro-2-methylphenyl)((R)-1-((S)-1-cyclopentyl-3-(methylamino)propan-2-ylcarbamoyl)piperidin-3-yl)methoxy)ethylcarbamate]: the IC50 was below 1 nM.
As to `CNC[C@H](CC1CCCCC1)NC(=O)N1CCC[C@@H]([C@@H](OCCNC(=O)OC)c2cc(F)c(F)c(F)c2)C1` [I*-119a, methyl 2-((R)-((R)-1-((S)-1-cyclohexyl-3-(methylamino)propan-2-ylcarbamoyl)piperidin-3-yl)(3,4,5-trifluorophenyl)methoxy)ethylcarbamate], the IC50 is below 10 nM.
